Consider six compounds from ChEMBL document CHEMBL5331044, “Recent advances in the development of EGFR degraders: PROTACs and LYTACs” (Eur J Med Chem, 2022).

Some results are limits rather than exact numbers.

For assay [1], the system named is NCI-H1975. The experiment in a line: Antiproliferative activity against human NCI-H1975 cells expressing EGFR L858R/T790M mutant assessed as inhibition of cell growth. Type of assay: functional, cell-based.
The test system of assay [2] is A-431. Nature of the assay: Antiproliferative activity against human A-431 cells expressing wild type EGFR assessed as inhibition of cell growth. Type of assay: functional, cell-based.
Assay [3] relates to NCI-H1975. The experiment in a line: Antiproliferative activity against human NCI-H1975 cells expressing EGFR T790M mutant assessed as inhibition of EGFR phosphorylation. Type of assay: functional, cell-based.
Assay [4] addresses Epidermal growth factor receptor (Homo sapiens, UniProt P00533, EX19DEL). Nature of the assay: Inhibition of EGFR del19 mutant in human HCC827 cells. Type of assay: cell-based.
The target of assay [5] is T1, Epidermal growth factor receptor (Homo sapiens, UniProt P00533). Nature of the assay: Inhibition of EGFR in human NCI-H1975 cells. Type of assay: cell-based.
T1 sequence (P00533 whole entry): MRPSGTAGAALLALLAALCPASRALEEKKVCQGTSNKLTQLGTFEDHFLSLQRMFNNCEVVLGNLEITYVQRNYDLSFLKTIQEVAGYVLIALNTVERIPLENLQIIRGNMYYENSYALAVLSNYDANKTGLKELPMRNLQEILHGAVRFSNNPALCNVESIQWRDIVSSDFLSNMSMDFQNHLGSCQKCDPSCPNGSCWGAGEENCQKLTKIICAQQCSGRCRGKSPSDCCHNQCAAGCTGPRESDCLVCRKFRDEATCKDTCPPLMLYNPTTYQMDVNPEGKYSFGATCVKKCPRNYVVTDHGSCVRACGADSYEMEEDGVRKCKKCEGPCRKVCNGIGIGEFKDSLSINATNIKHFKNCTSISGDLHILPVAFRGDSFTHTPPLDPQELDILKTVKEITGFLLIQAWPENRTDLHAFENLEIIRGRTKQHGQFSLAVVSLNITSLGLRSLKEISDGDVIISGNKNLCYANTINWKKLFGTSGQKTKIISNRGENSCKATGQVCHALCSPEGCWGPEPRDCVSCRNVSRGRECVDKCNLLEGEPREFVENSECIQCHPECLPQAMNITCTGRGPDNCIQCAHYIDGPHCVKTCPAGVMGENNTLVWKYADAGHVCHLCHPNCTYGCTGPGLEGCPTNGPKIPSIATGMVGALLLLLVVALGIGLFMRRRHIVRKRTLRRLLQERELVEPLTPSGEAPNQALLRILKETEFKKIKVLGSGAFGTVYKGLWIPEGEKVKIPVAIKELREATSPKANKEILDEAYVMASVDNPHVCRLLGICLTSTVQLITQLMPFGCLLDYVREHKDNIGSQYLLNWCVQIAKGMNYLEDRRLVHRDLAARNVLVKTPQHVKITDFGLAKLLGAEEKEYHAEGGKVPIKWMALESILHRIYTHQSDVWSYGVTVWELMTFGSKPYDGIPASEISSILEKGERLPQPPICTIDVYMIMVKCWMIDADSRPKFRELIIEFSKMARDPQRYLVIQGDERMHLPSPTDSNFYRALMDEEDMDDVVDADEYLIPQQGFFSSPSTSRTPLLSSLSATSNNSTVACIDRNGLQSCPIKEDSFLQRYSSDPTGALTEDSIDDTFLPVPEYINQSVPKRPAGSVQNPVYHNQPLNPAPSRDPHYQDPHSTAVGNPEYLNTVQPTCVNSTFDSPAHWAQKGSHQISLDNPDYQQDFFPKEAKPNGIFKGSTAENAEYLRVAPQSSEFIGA
Assay [6] addresses T1, Epidermal growth factor receptor. The experiment in a line: Inhibition of wild type EGFR in human A549 cells. Type of assay: cell-based.
Assay [7] shares this target. Nature of the assay: Inhibition of wild type EGFR in human A-431 cells. Type of assay: cell-based.
Assay [8] has as its system Epidermal growth factor receptor (Homo sapiens), P00533 [UNDEFINED MUTATION]. The experiment in a line: Inhibition of EGFR del19 mutant (unknown origin) assessed as fold change.
Assay [9] concerns BaF3. Nature of the assay: Antiproliferative activity against mouse BaF3 cells transfected with EGFR […]/T790M mutant assessed as inhibition of cell growth. Type of assay: functional, cell-based.
For assay [10], the target named is von Hippel-Lindau disease tumor suppressor/Receptor tyrosine-protein kinase erbB-2 (Homo sapiens, UniProt P04626+P40337). The experiment in a line: PROTAC activity at VHL/HER2 in human SK-BR-3 cells assessed as protein degradation incubated for 24 hrs by immunoblot analysis. Type of assay: cell-based. (In general: Immunoblotting shows a protein as a band on a membrane.)

Assay [11] concerns the target von Hippel-Lindau disease tumor suppressor/Epidermal growth factor receptor (Homo sapiens, UniProt P00533+P40337). Nature of the assay: PROTAC activity at VHL/EGFR ins20 mutant in human HeLa cells assessed as protein degradation incubated for 24 hrs by immunoblot analysis. Type of assay: cell-based.

Chain of Epidermal growth factor receptor (Homo sapiens), P00533 [UNDEFINED MUTATION] (P00533 whole entry, looked up, stated change not applied): as the sequence (P00533 whole entry) above
Chain of Epidermal growth factor receptor (Homo sapiens, UniProt P00533, EX19DEL) (P00533 whole entry, looked up, stated change not applied): as the sequence (P00533 whole entry) above
Chain of von Hippel-Lindau disease tumor suppressor/Epidermal growth factor receptor (P00533 25-1210 limits assumed, stated change not applied): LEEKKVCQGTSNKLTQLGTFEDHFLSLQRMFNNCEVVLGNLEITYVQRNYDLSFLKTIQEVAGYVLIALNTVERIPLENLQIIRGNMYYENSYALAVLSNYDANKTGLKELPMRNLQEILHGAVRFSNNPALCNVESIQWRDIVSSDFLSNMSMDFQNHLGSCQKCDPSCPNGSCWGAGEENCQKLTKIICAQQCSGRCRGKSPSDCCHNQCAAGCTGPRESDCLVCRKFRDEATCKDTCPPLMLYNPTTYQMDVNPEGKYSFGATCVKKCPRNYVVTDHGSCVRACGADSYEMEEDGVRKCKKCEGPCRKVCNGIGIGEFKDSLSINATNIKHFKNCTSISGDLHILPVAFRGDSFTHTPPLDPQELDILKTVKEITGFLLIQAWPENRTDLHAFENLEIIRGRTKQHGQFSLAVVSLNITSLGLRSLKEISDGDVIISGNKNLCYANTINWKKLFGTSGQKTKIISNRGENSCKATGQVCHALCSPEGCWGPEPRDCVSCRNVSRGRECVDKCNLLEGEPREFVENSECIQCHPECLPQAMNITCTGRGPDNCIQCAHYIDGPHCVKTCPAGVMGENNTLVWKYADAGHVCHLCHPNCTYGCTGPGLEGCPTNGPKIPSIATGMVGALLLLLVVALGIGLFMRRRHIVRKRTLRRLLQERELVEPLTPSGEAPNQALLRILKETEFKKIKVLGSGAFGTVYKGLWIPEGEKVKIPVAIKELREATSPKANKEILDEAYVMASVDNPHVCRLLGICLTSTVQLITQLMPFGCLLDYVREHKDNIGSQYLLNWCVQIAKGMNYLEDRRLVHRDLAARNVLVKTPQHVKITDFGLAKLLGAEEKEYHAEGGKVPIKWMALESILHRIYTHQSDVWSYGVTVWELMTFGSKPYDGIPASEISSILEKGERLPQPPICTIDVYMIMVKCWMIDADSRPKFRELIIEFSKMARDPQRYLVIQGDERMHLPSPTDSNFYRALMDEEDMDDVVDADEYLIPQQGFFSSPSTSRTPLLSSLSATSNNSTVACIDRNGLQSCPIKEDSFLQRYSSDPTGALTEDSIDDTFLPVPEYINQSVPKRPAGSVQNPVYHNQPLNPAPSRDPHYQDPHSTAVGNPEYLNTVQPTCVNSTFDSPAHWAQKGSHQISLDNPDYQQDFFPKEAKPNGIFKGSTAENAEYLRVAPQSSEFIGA
Chain of von Hippel-Lindau disease tumor suppressor/Epidermal growth factor receptor (P40337 whole entry, stated change not applied): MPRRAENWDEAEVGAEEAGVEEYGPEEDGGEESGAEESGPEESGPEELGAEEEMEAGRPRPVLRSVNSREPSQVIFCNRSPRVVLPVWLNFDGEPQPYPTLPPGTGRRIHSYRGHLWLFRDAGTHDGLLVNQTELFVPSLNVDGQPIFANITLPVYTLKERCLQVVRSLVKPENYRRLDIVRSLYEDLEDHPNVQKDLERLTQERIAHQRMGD

With `O=C(Nc1nccs1)C(c1cc(F)ccc1O)N1Cc2ccccc2C1=O` (stereo unspecified), the IC50 (as a rule, the concentration that gives 50% inhibition) in assay [1] was 2 nM; in [2], 1900 nM. On to `CN(C)C/C=C/C(=O)Nc1cc2c(Nc3ccc(F)c(Cl)c3)ncnc2cc1O[C@H]1CCOC1` [AFATINIB], for which, in assay [3], the IC50 was 93 nM. `Cc1ncsc1-c1ccc(CNC(=O)[C@@H]2C[C@@H](O)CN2C(=O)[C@@H](NC(=O)CCCCCCCCCCn2cc(COc3cc4ncnc(Nc5ccc(F)c(Cl)c5)c4cc3NC(=O)/C=C/CN3CCCCC3)nn2)C(C)(C)C)cc1`: the IC50 in assay [4] is 6 nM; in assay [5], over 20000 nM; in assay [6], over 20000 nM; in assay [7], over 20000 nM. `COc1cc2ncnc(N(Cc3ccc([N+](=O)[O-])cc3)c3ccc(F)c(Cl)c3)c2cc1OCCOCCOCCOCCC(=O)Nc1cccc2c1CN(C1CCC(=O)NC1=O)C2=O` (stereo unspecified): in [8], the fold change (FC) came out at 1000. For the compound `O=C1CCC(N2C(=O)c3cccc(NCCOCCOCCOCCN4CCN(c5ccc(-c6ccc7c(c6)C(=O)N(C(C(=O)Nc6nccs6)c6ccccc6)C7)cn5)CC4)c3C2=O)C(=O)N1` (stereo unspecified), the IC50 in assay [9] was 96 nM. On to `Cc1ncsc1-c1ccc(CNC(=O)[C@@H]2C[C@@H](O)CN2C(=O)[C@@H](NC(=O)COCCOCCOc2ccc(-c3ccc4ncnc(Nc5ccc(OCc6cccc(F)c6)c(Cl)c5)c4c3)cc2)C(C)(C)C)cc1`, for which the 50% degradation concentration (DC50) (as a rule, the concentration giving 50% degradation) in [10] turned out to be 102 nM; in assay [11], 736 nM.
